From patent US12522616B2, “Thiazololactam compound as ERK inhibitor and use thereof” (D3 BIO (WUXI) CO., LTD., priority 2019, dated 2026)
pIC50: −log10 of the molar value.

Key:
[1] = In vivo DMPK assay in mouse; details: female BALB/c mice; for Oral DNAUC (AUCPO/Dose) / bioavailability / Cmax: 3 mg/kg orally; for clearance / Vd / bioavailability / half-life / Cmax: mouse, plasma; for clearance / Vd: iv; for clearance / Vd / bioavailability: 1 mg/kg intravenously; for clearance: read-out: Cl (clearance rate); for Vd: read-out: Vdss (distribution volume); for bioavailability / Cmax: po; for bioavailability: read-out: F % (oral bioavailability); for half-life: single administration, read-out: T1/2 (half-life) (converted); for Cmax: read-out: Cmax (maximum concentration)
Source text: Assay Example 3. Assay of In Vivo DMPK
In vivo DMPK assay in mouse
Female BALB/c mice were used as assay animals to determine the blood concentration of compounds and evaluate the pharmacokinetic behavior after a single administration.
Eight healthy adult female BALB/c mice were selected, wherein 4 mice were in the intravenous injection group and 4 mice were in the oral group. The vehicle in the intravenous injection group was 5% DMSO+95% (20% HP-β-CD). The compound to be assayed was mixed with an appropriate amount of vehicle for intravenous injection, vortexed and sonicated to prepare a clear solution of 0.5 mg/mL. The clear solution was filtered by a microporous membrane, and then ready for use. The vehicle in the oral group was 5% DMSO+95% (20% HP-β-CD). The compound to be assayed was mixed with the vehicle, vortexed and sonicated to prepare a solution of 0.3 mg/mL. Mice were administered 1 mg/kg intravenously or 3 mg/kg orally, and then whole blood was collected for a certain period. Plasma was prepared. The drug concentration was analyzed by LC-MS/MS method, and the pharmacokinetic parameters were calculated by Phoenix WinNonlin software (Pharsight, USA).
Note: DMSO: dimethyl sulfoxide; HP-β-CD: hydroxypropyl-β-cyclodextrin.

HT29 tumor cells = assay: Assay of in vitro cell proliferation inhibition (CellTiterGlo); assay type: cell-based; details: Homo sapiens, HT-29
Procedure: Assay Example 2. Assay of In Vitro Cell Proliferation Inhibition
The ability of compounds to inhibit the proliferation of HT29 tumor cells was measured.
The assay compound was dissolved in 100% DMSO to prepare 10 mM stock solution.
• 1) UV light of a biological safety cabin was turned on, and 30 minutes were counted down; • 2) In a 37° C. water bath, RPMI1640 medium and trypsin were preheated; • 3) After completion of the UV irradiation, the biological safety cabin was opened. • The preheated medium, trypsin and phosphate buffered saline (PBS), etc. were wiped with alcohol and placed in the biological safety cabin; • 4) HT29 cells were removed from the incubator, and the old medium was removed in biological safety cabin. 10 ml of PBS was added. The mixture was shaken gently, and then PBS was removed; • 5) 1.5 ml of preheated 0.25% trypsin was added. The culture vessel was shaken horizontally so that the trypsin evenly covered the cells at the bottom, and placed in an incubator for 2 minutes; • 6) Cell digestion was stopped with complete medium, and the cell suspension was pipetted to homogeneity and counted; • 7) According to the result of cell counting, the density of cell suspension was adjusted to 1500 cells per well, and the cell suspension was seeded at 50 μl per well; • 8) The stock solution of compounds was serially diluted in DMSO solution, and compounds were added to cell plate using Tecan; • 9) The compound-added cell plate and CellTiterGlo were equilibrated at room temperature, and 25 microliters of CellTiterGlo was then added to each well. The cell plate was shaken for 1-2 minutes and then allowed to stand for 10 minutes. The signal value was then detected. The data were analyzed using XL-Fit, and the IC50 of each compound was calculated. 4.

ERK2 kinase = ERK2 kinase (Homo sapiens (Human), UniProt P28482); assay: Assay of in vitro kinase activity (33P-ATP filter-binding, MBP substrate); assay type: biochemical; details: remaining kinase activity vs DMSO control
Procedure: Assay Example 1. Assay of In Vitro Kinase Activity
The ability of compounds to inhibit ERK2 kinase activity was measured.
20 mM Hepes (pH 7.5), 10 mM MgCl2, 1 mM ethylenebis(oxyethylenenitrilo)tetraacetic acid (EGTA), 0.02% Brij35, 0.02 mg/mL bovine serum albumin (BSA), 0.1 mM Na3VO4, 2 mM dithiothreitol (DTT), 1% DMSO.
The assay compound was dissolved in 100% DMSO to prepare a stock solution of specific concentration. The compound was serially diluted in DMSO solution using Integra Viaflo Assist smart pipette.
• 1) The substrate MBP was prepared in freshly prepared reaction buffer; • 2) ERK2 kinase was added to the above-mentioned MBP solution and mixed gently; • 3) The compound dissolved in 100% DMSO was added to the kinase reaction system using ultrasound technology (Echo550; nanoliter range), and the mixture was incubated at room temperature for 20 minutes; • 4)^33P-ATP (specific concentration of […]) was added to the reaction system, and the reaction was started at this time; • 5) The mixture was incubated at room temperature for 2 hours; • 6) The amount of radioactivity was detected by filter-binding method; • 7) ERK2 kinase activity was calculated as the ratio of the remaining kinase activity in the assay sample to the kinase activity of the control group (treated by DMSO). Curve was fitted using Prism (GraphPad software) and IC50 values were calculated. 5.

[2] = test system: human non-small cell lung cancer H358 cells; assay: In vivo efficacy in mouse H358 subcutaneous xenograft model; details: BALB/c nude mouse, 30 mg/kg PO QD
Procedure: Animals were monitored daily for health and death. […] Animal deaths and side effects in each group were recorded based on the number of animals in each group. […] 5.

Sequence of ERK2 kinase (P28482 whole entry): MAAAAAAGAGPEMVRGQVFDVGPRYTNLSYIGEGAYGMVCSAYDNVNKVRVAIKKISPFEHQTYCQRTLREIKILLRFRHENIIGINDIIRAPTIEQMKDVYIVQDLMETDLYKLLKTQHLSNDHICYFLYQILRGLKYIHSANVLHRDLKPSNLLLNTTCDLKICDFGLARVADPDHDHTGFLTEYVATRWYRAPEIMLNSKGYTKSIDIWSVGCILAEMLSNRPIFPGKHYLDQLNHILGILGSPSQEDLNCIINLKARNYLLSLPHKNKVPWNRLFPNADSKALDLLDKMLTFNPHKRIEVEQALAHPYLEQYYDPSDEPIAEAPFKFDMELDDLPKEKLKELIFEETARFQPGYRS

| Oral DNAUC (AUCPO/Dose) [1] | Cmax [1] | pIC50 (HT29 tumor cells) | pIC50 (ERK2 kinase) | SMILES | further results |
| --- | --- | --- | --- | --- | --- |
| 2153 nM · h/mpk | 3360 nM | 7.85 | 9.62 | Cn1nccc1Nc1nccc(-c2nc3c(s2)C(C)(C)N(Cc2cccc(Cl)c2)C3=O)n1 [WX001] | clearance [1]: 14.3 mL/min/kg; Vd [1]: 1.1 L/kg; bioavailability [1]: 86%; half-life [1]: 0.9 h |
| – | – | 7.62 | 9.46 | Cn1nccc1Nc1nccc(-c2nc3c(s2)C(C)(C)N(Cc2cccc(F)c2)C3=O)n1 [WX002] | – |
| – | – | 7.57 | 9.43 | Cn1nccc1Nc1nccc(-c2nc3c(s2)C(C)(C)N(Cc2ccc(F)c(F)c2)C3=O)n1 [WX003] | – |
| – | – | 7.46 | 9.60 | CC1(C)c2sc(-c3ccnc(NC4CCOCC4)n3)nc2C(=O)N1Cc1cccc(F)c1 [WX004] | – |
| 468 nM · h/mpk | 1030 nM | 8.10 | 10.30 | Cc1cnc(Nc2ccnn2C)nc1-c1nc2c(s1)C(C)(C)N(Cc1cccc(Cl)c1)C2=O [WX005] | – |
| – | – | 7.59 | 9.41 | CC1(C)c2sc(-c3ccnc(NC4CCOCC4)n3)nc2C(=O)N1Cc1cccc(Cl)c1 [WX007] | – |
| – | – | 7.24 | 9.28 | Cc1cnc(Nc2ccnn2C(F)F)nc1-c1nc2c(s1)C(C)(C)N(Cc1cccc(F)c1)C2=O [WX008] | – |
| 820 nM · h/mpk | 1170 nM | 8.22 | 9.19 | [2H]C([2H])([2H])n1nccc1Nc1ncc(C)c(-c2nc3c(s2)C(C)(C)N(Cc2cccc(F)c2)C3=O)n1 [WX009] | clearance [1]: 28 mL/min/kg; Vd [1]: 1.7 L/kg; bioavailability [1]: 67%; half-life [1]: 1.7 h |
| – | – | 7.57 | 9.85 | Cc1cc(Nc2ncc(C)c(-c3nc4c(s3)C(C)(C)N(Cc3cccc(F)c3)C4=O)n2)n(C)n1 [WX010] | – |
| – | – | 7.59 | 9.01 | COCCn1nccc1Nc1ncc(C)c(-c2nc3c(s2)C(C)(C)N(Cc2cccc(F)c2)C3=O)n1 [WX011] | – |
| – | – | 7.43 | 9.32 | Cc1cnc(Nc2ccnn2C2CC2)nc1-c1nc2c(s1)C(C)(C)N(Cc1cccc(F)c1)C2=O [WX012] | – |
| – | – | 7.74 | 9.72 | COc1cc(Nc2ncc(C)c(-c3nc4c(s3)C(C)(C)N(Cc3cccc(F)c3)C4=O)n2)n(C)n1 [WX013] | – |

| SMILES | Oral DNAUC (AUCPO/Dose) [1] | Cmax [1] | pIC50 (HT29 tumor cells) | pIC50 (ERK2 kinase) | further results |
| --- | --- | --- | --- | --- | --- |
| Cc1cnc(Nc2ccnn2C)nc1-c1nc2c(s1)C(C)(C)N(Cc1cccc(F)c1)C2=O [WX006] | 530 nM · h/mpk | 1040 nM | 8.15 | 9.52 | clearance [1]: 23 mL/min/kg; Vd [1]: 1.7 L/kg; bioavailability [1]: 34%; half-life [1]: 1 h; body weight of assay animals ([2]; to the 28th day): did not decrease significantly; morbidity or death ([2]; to the 28th day): no morbidity or death; TGI (inhibition rate of tumor growth) ([2]; H358 xenograft, 28th day): 94% |
